Tests used:
Fn 12230 = assay: pH tolerance assay, wild-type Fn; format: cell-based, Fusobacterium nucleatum; conditions: stationary phase; pH 4.0; 50 μg/ml Congo Red; 1 or 2 hours
HCT116 xenograft tumors = assay: CRC xenograft model; format: in vivo; conditions: Fn 12230 washed in 1 mg/ml Congo Red, injected into tumors; IHC one week later; nude mice
Method: FIG. 5A-5D. Amyloid-like FadA mediates colonization in CRC and promotes tumor growth in vivo. 5A. Analysis of Fn colonization in mouse xenograft tumors by IHC. An inoculum of 5×10^6 HCT116 cells was injected subcutaneously and bilaterally into the nude mice. Once the tumors became visible (after 3-4 days), approximately 5×10^6 CFU of Fn 12230 washed in PBS or 1 mg/ml Congo Red (CR) were injected into the tumors. The tumors were extracted one week later, and the formalin-fixed and embedded (FFPE) tissues were stained with mAb 7H7. Note the brown stains in tumor injected with PBS-washed tumor, but not in CR-washed tumor. 5B. Effects of secreted amyloid-like FadA on tumor growth. HCT116 cells were injected into the nude mice as described above, followed by injection of 5×10^6 CFU of Fn 12230 (Fn, n=7), lam (n=3) or US1 (ΔfadA, n=4). The tumor volumes were measured immediately before bacteria injection (Day 0, designated as 100%), and at 3 days after injection (Day 3). The horizontal lines represent averages of tumor volumes (left panel). The individual tumors are shown (right panel). **p<0.01, ***p<0.001 (t-test). 5C. […] The tumor volumes were measured on Day 0 and Day 5 as described above. […] The tumor volumes were measured described above. […]
CRC xenograft model. […] The tumor length and width were measured using calipers and tumor volumes were calculated using the following formula: Volume=(width)2×length/2. […]

With `Nc1c(/N=N/c2ccc(-c3ccc(/N=N/c4cc(S(=O)(=O)O)c5ccccc5c4N)cc3)cc2)cc(S(=O)(=O)O)c2ccccc12` [Congo Red] the “viability of wild-type Fn in acidic environment” value (Fn 12230) was “drastically reduced viability of wild-type Fn to the similar levels as US1” and the “Fn colonization in xenograft tumors” value (HCT116 xenograft tumors) was “significantly inhibited Fn colonization in xenograft tumors”.
